From PubChem BioAssay (NCI)
Values joined by “and” are separate entries in the source; they are usually repeats but may differ in a detail not shown here. Equal entries are not always repeated.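 Where inhibition never reached the appropriate level, the endpoint shown equals the highest concentration tested. Otherwise, values were interpolated linearly from a five-concentration, 48-hour dose response in 96-well plates. Abbreviation: GI50, concentration required for 50% inhibition of growth. TGI marks complete inhibition of growth.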

Key:
Assay in all cases: growth of human tumour cells (NCI), 48 h
786-0 renal = test system: 786-0 renal
A498 renal = test system: A498 renal
A549 NSCLC = test system: A549 NSCLC
ACHN renal = test system: ACHN renal
BT-549 breast = test system: BT-549 breast
CAKI-1 renal = test system: CAKI-1 renal
CCRF-CEM leukemia = test system: CCRF-CEM leukemia
COLO 205 colon = test system: COLO 205 colon
DLD-1 colon = test system: DLD-1 colon
DMS 114 small cell lung = test system: DMS 114 small cell lung
DMS 273 small cell lung = test system: DMS 273 small cell lung
DU-145 prostate = test system: DU-145 prostate
EKVX NSCLC = test system: EKVX NSCLC
HCC-2998 colon = test system: HCC-2998 colon
HCT-116 colon = test system: HCT-116 colon
HCT-15 colon = test system: HCT-15 colon
HL-60(TB) leukemia = test system: HL-60(TB) leukemia
HOP-18 NSCLC = test system: HOP-18 NSCLC
HOP-62 NSCLC = test system: HOP-62 NSCLC
HOP-92 NSCLC = test system: HOP-92 NSCLC
HS 578T breast = test system: HS 578T breast
HT29 colon = test system: HT29 colon
IGROV1 ovarian = test system: IGROV1 ovarian
K-562 leukemia = test system: K-562 leukemia
KM12 colon = test system: KM12 colon
KM20L2 colon = test system: KM20L2 colon
LOX IMVI melanoma = test system: LOX IMVI melanoma
LXFL 529 NSCLC = test system: LXFL 529 NSCLC
M14 melanoma = test system: M14 melanoma
M19-MEL melanoma = test system: M19-MEL melanoma
MALME-3M melanoma = test system: MALME-3M melanoma
MDA-MB-231 breast = test system: MDA-MB-231 breast
MDA-MB-435 = test system: MDA-MB-435
MDA-N = test system: MDA-N
MOLT-4 leukemia = test system: MOLT-4 leukemia
NCI-H226 lung = test system: NCI-H226 lung
NCI-H460 lung = test system: NCI-H460 lung
NCI-H522 lung = test system: NCI-H522 lung
OVCAR-3 ovarian = test system: OVCAR-3 ovarian
OVCAR-4 ovarian = test system: OVCAR-4 ovarian
OVCAR-5 ovarian = test system: OVCAR-5 ovarian
OVCAR-8 ovarian = test system: OVCAR-8 ovarian
PC-3 prostate = test system: PC-3 prostate
RPMI-8226 leukemia = test system: RPMI-8226 leukemia
RXF 393 renal = test system: RXF 393 renal
SF-268 CNS = test system: SF-268 CNS
SF-295 CNS = test system: SF-295 CNS
SF-539 CNS = test system: SF-539 CNS
SK-MEL-2 melanoma = test system: SK-MEL-2 melanoma
SK-MEL-28 melanoma = test system: SK-MEL-28 melanoma
SK-MEL-5 melanoma = test system: SK-MEL-5 melanoma
SK-OV-3 ovarian = test system: SK-OV-3 ovarian
SN12C renal = test system: SN12C renal
SNB-19 CNS = test system: SNB-19 CNS
SNB-75 CNS = test system: SNB-75 CNS
SNB-78 CNS = test system: SNB-78 CNS
SR leukemia = test system: SR leukemia
SW-620 colon = test system: SW-620 colon
TK-10 renal = test system: TK-10 renal
U251 CNS = test system: U251 CNS
UACC-257 melanoma = test system: UACC-257 melanoma
UACC-62 melanoma = test system: UACC-62 melanoma
UO-31 renal = test system: UO-31 renal
XF 498 CNS = test system: XF 498 CNS
NCI-H23 lung = test system: NCI-H23 lung

## COC1/C=C\C=C(/C)C(=O)Nc2cc3nc4ccc(Br)cc4oc-3c(c2=O)CC(C)CC(OC)C(O)C(C)/C=C(\C)C1OC(N)=O (stereo not given)
786-0 renal
  GI50: 5.76 nM
  TGI: 12 µM
A498 renal
  TGI: 30.9 µM
A549 NSCLC
  TGI: 22.7 µM
ACHN renal
  GI50: 4.59 nM
  TGI: 15.6 µM
BT-549 breast
  GI50: 10.1 µM
  TGI: 22.6 µM
CAKI-1 renal
  TGI: 16.3 µM
CCRF-CEM leukemia
  GI50: 2.47 nM and 18.2 nM
  TGI: 1.9 µM
COLO 205 colon
  GI50: 0.903 nM
  TGI: 0.169 µM
DLD-1 colon
  TGI: 8.29 µM
DMS 114 small cell lung
  TGI: 5.34 µM
DMS 273 small cell lung
  TGI: 4.19 µM
DU-145 prostate
  GI50: 4.03 nM
  TGI: 18 µM
EKVX NSCLC
  TGI: 25.9 µM
HCC-2998 colon
  GI50: 8.56 nM
  TGI: 3.2 µM
HCT-116 colon
  GI50: 0.83 nM
  TGI: 4.92 µM
HCT-15 colon
  GI50: 5.83 nM
  TGI: 6.99 µM
HL-60(TB) leukemia
  GI50: 0.389 nM
HOP-18 NSCLC
  TGI: 17.3 µM
HOP-62 NSCLC
  TGI: 21.2 µM
HOP-92 NSCLC
  GI50: 7.57 nM
  TGI: 4.81 µM
HS 578T breast
  TGI: 22.9 µM
HT29 colon
  TGI: 7.91 µM
IGROV1 ovarian
  GI50: 3.12 nM
  TGI: 19.2 µM
K-562 leukemia
  GI50: 0.503 nM
  TGI: 7.03 µM
KM12 colon
  TGI: 13.4 µM
KM20L2 colon
  TGI: 3.65 µM
LOX IMVI melanoma
  GI50: 2.71 nM
  TGI: 0.959 µM
LXFL 529 NSCLC
  TGI: 9.42 µM
M14 melanoma
  GI50: 4.14 nM
  TGI: 5.33 µM
M19-MEL melanoma
  TGI: 2.26 µM
MALME-3M melanoma
  GI50: 4.93 nM
  TGI: 12.6 µM
MDA-MB-231 breast
  GI50: 32.1 nM
  TGI: 11.5 µM
MDA-MB-435
  GI50: 34.2 nM
  TGI: 2990 nM
MDA-N
  GI50: 12.4 nM
  TGI: 1270 nM
MOLT-4 leukemia
  GI50: 3.1 nM
  TGI: 466 nM
NCI-H226 lung
  TGI: 17.7 µM
NCI-H460 lung
  GI50: 4.46 nM
  TGI: 17.9 µM
NCI-H522 lung
  GI50: 1.41 nM
  TGI: 142 nM
OVCAR-3 ovarian
  TGI: 3.84 µM
OVCAR-4 ovarian
  TGI: 3.97 µM
OVCAR-5 ovarian
  GI50: 4.34 nM
  TGI: 5.88 µM
OVCAR-8 ovarian
  TGI: 14.5 µM
PC-3 prostate
  GI50: 5.74 nM
  TGI: 24.5 µM
RPMI-8226 leukemia
  GI50: 8.67 nM
  TGI: 16 µM
RXF 393 renal
  TGI: 8.61 µM
SF-268 CNS
  TGI: 18.1 µM
SF-295 CNS
  TGI: 25.8 µM
SF-539 CNS
  GI50: 7.45 nM
  TGI: 11.3 µM
SK-MEL-2 melanoma
  TGI: 24.5 µM
SK-MEL-28 melanoma
  GI50: 0.391 nM
SK-MEL-5 melanoma
  TGI: 9.44 µM
SK-OV-3 ovarian
  TGI: 15.3 µM
SN12C renal
  TGI: 6.36 µM
SNB-19 CNS
  TGI: 29.4 µM
SNB-75 CNS
  TGI: 23.8 µM
SNB-78 CNS
  TGI: 30 µM
SR leukemia
  GI50: 2.72 nM
  TGI: 0.634 µM
SW-620 colon
  GI50: 0.996 nM
  TGI: 2.75 µM
TK-10 renal
  GI50: 6.81 nM
  TGI: 17.6 µM
U251 CNS
  TGI: 28.7 µM
UACC-257 melanoma
  GI50: 3.21 nM
  TGI: 6.93 µM
UACC-62 melanoma
  GI50: 1.62 nM
UO-31 renal
  TGI: 4.05 µM
XF 498 CNS
  TGI: 0.466 µM

## COc1ccc2c([nH]c3cc(O)c(C)cc32)c1C=O
786-0 renal
  TGI: > 25 µM
A549 NSCLC
  TGI: > 25 µM
ACHN renal
  TGI: > 25 µM
CCRF-CEM leukemia
  TGI: > 25 µM
COLO 205 colon
  TGI: > 25 µM
DLD-1 colon
  TGI: > 25 µM
DMS 114 small cell lung
  TGI: > 25 µM
DMS 273 small cell lung
  TGI: > 25 µM
HCC-2998 colon
  TGI: > 25 µM
HCT-116 colon
  TGI: > 25 µM
HCT-15 colon
  TGI: > 25 µM
HL-60(TB) leukemia
  TGI: > 25 µM
HOP-62 NSCLC
  TGI: > 25 µM
HOP-92 NSCLC
  TGI: > 25 µM
HT29 colon
  TGI: > 25 µM
IGROV1 ovarian
  TGI: > 25 µM
K-562 leukemia
  TGI: > 25 µM
KM12 colon
  TGI: > 25 µM
KM20L2 colon
  TGI: > 25 µM
LOX IMVI melanoma
  TGI: > 25 µM
LXFL 529 NSCLC
  TGI: > 25 µM
M14 melanoma
  TGI: > 25 µM
M19-MEL melanoma
  TGI: > 25 µM
MALME-3M melanoma
  TGI: > 25 µM
MOLT-4 leukemia
  TGI: > 25000 nM
NCI-H226 lung
  TGI: > 25 µM
NCI-H460 lung
  TGI: > 25 µM
NCI-H522 lung
  TGI: > 25000 nM
OVCAR-3 ovarian
  TGI: > 25 µM
OVCAR-4 ovarian
  TGI: > 25 µM
OVCAR-5 ovarian
  TGI: > 25 µM
OVCAR-8 ovarian
  TGI: > 25 µM
RPMI-8226 leukemia
  TGI: > 25 µM
RXF 393 renal
  TGI: > 25 µM
SF-268 CNS
  TGI: > 25 µM
SF-539 CNS
  TGI: > 25 µM
SK-MEL-2 melanoma
  TGI: > 25 µM
SK-MEL-28 melanoma
  TGI: > 25 µM
SK-MEL-5 melanoma
  TGI: > 25 µM
SK-OV-3 ovarian
  TGI: > 25 µM
SN12C renal
  TGI: > 25 µM
SNB-19 CNS
  TGI: > 25 µM
SNB-78 CNS
  TGI: > 25 µM
SR leukemia
  TGI: > 25 µM
SW-620 colon
  TGI: > 25 µM
TK-10 renal
  TGI: > 25 µM
U251 CNS
  TGI: > 25 µM
UACC-62 melanoma
  TGI: > 25 µM
UO-31 renal
  TGI: > 25 µM
XF 498 CNS
  TGI: > 25 µM

## C=CC[C@H]1C[C@@]2(C)OC[C@H](C(C)C)N2C1=O
786-0 renal
  TGI: > 100 µM
A498 renal
  TGI: > 100 µM
A549 NSCLC
  TGI: > 100 µM
ACHN renal
  TGI: > 100 µM
CAKI-1 renal
  TGI: > 100 µM
CCRF-CEM leukemia
  TGI: > 100 µM
COLO 205 colon
  TGI: > 100 µM
DMS 273 small cell lung
  TGI: > 100 µM
EKVX NSCLC
  TGI: > 100 µM
HCT-116 colon
  TGI: > 100 µM
HCT-15 colon
  TGI: > 100 µM
HOP-18 NSCLC
  TGI: > 100 µM
HOP-62 NSCLC
  TGI: > 100 µM
HOP-92 NSCLC
  TGI: > 100 µM
HT29 colon
  TGI: > 100 µM
IGROV1 ovarian
  TGI: > 100 µM
K-562 leukemia
  TGI: > 100 µM
KM12 colon
  TGI: > 100 µM
KM20L2 colon
  TGI: > 100 µM
LOX IMVI melanoma
  TGI: > 100 µM
M19-MEL melanoma
  TGI: > 100 µM
MALME-3M melanoma
  TGI: > 100 µM
NCI-H23 lung
  TGI: > 100 µM
NCI-H460 lung
  TGI: > 100 µM
OVCAR-3 ovarian
  TGI: > 100 µM
OVCAR-4 ovarian
  TGI: > 100 µM
OVCAR-5 ovarian
  TGI: > 100 µM
OVCAR-8 ovarian
  TGI: > 100 µM
RPMI-8226 leukemia
  TGI: > 100 µM
RXF 393 renal
  TGI: > 100 µM
SF-268 CNS
  TGI: > 100 µM
SF-295 CNS
  TGI: > 100 µM
SF-539 CNS
  TGI: > 100 µM
SK-MEL-2 melanoma
  TGI: > 100 µM
SK-MEL-28 melanoma
  TGI: > 100 µM
SK-MEL-5 melanoma
  TGI: > 100 µM
SN12C renal
  TGI: > 100 µM
SNB-19 CNS
  TGI: > 100 µM
SNB-75 CNS
  TGI: > 100 µM
SNB-78 CNS
  TGI: > 100 µM
SR leukemia
  TGI: > 100 µM
SW-620 colon
  TGI: > 100 µM
TK-10 renal
  TGI: > 100 µM
U251 CNS
  TGI: > 100 µM
UACC-257 melanoma
  TGI: > 100 µM
UACC-62 melanoma
  TGI: > 100 µM
XF 498 CNS
  TGI: > 100 µM
